According to patent US11840521B2, “Modulators of Mas-related G-protein receptor X4 and related products and methods” (Escient Pharmaceuticals, Inc., priority 2019, dated 2023):

What follows are molecules tested against MRGPRX4 (Homo sapiens, UniProt Q96LA9) (assay: MRGPR X4 antagonist activity, IP-One Gq HTRF assay in stably transfected HEK cells (versus agonist bilirubin, deoxycholic acid, conjugated bilirubin, urobilin, obeticholic acid or BAR502)). Settings: read-out: IC50 (10 μM BAR502) nM; MRGPRX4 antagonists versus 10 μM BAR502 agonist.
Format: cell-based
Design: expressed in transfected cells; host or cells: HEK cells, stably transfected
Experimental: HEK cells stably transfected to express human MRGPR X4 were maintained in an incubator at 37° C. with 5% CO2 and grown in DMEM media with 10% fetal bovine serum (FBS) and 1% each of sodium pyruvate, Glutamax, penicillin/streptomycin, and Geneticin. HEK cells stably transfected to express mouse MRGPR A1 were maintained in the same incubator and grown in DMEM media with 10% FBS, 1% each of sodium pyruvate, Glutamax, penicillin/streptomycin, Geneticin, and 2.2 mg/mL Hygromycin.
Cells were plated in a 384-well assay plate at 20,000 cells per well in 12 μL of Opti-MEM and kept in an incubator overnight. On the day of the assay, compounds solubilized at 10 mM in DMSO were added as a 10-point curve (10 uM final top concentration with 1:3 serial dilutions) using a Tecan D300E digital dispenser. […] Final concentrations of DMSO were kept consistent across the plate. Plates were incubated in the dark for 1 h at 37° C. and then for 30 minutes at room temperature. IP-1 standards and HTRF detection reagents were added according to the IP-One—Gq Kit purchased from Cisbio (part number 62IPAPEJ) and incubated in the dark for 1 h at room temperature. The plate was read on a Molecular Devices SpectraMax iD5 plate reader. The HTRF ratio was calculated from the raw data and graphed using GraphPad Prism to calculate an IC50 value for each compound.

Chain of MRGPRX4 (Q96LA9 whole entry): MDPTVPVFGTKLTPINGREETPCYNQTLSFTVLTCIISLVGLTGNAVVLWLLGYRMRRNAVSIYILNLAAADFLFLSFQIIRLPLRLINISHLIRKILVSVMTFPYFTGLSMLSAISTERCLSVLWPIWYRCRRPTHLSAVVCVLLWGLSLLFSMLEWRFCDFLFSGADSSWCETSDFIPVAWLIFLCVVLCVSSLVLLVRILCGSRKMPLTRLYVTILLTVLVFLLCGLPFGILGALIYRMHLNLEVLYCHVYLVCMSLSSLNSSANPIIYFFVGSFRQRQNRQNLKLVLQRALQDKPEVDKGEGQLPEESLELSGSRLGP

IC50 | Compound
11 nM | O=C(O)c1cccc(COc2ccc(Cl)cc2C(F)(F)F)n1 [Compound 1-31]

Same assay, conditions: versus 10 μM Bilirubin agonist; HEK cells expressing human MRGPR X4; read-out: MRGPR4 Antagonist Activity

IC50 | Compound
> 2500 nM | O=C(O)c1cccc(COc2ccccc2C(F)F)c1 [Compound 33-1, 3-((2-(difluoromethyl)phenoxy)methyl)benzoic acid]
< 100 nM | CCc1cc(COc2ccc3ccccc3c2)nc(C(=O)O)c1 [Compound 42-1, 4-ethyl-6-((naphthalen-2-yloxy)methyl)picolinic acid]
500 to 1000 nM | O=C(N[C@H]1CC[C@H](O)CC1)c1cccc(COc2ccc(C(F)(F)F)cc2Cl)c1 [Compound 52-15]
100 to 500 nM | NC(=O)c1cccc(COc2ccc(C(F)(F)F)cc2Cl)c1 [Compound 45-1, 3-((2-chloro-4-(trifluoromethyl)phenoxy)methyl)benzamide]
< 100 nM | Cc1cc(CNc2ccc(C(F)(F)F)cc2Cl)nc(C(=O)O)c1 [Compound 57-1, 6-(((2-chloro-4-(trifluoromethyl)phenyl)amino)methyl)-4-methylpicolinic acid]
500 to 1000 nM | O=S(=O)(O)c1cccc(COc2ccc(C(F)(F)F)cc2Cl)c1 [Compound 40-1, 3-((2-chloro-4-(trifluoromethyl)phenoxy)methyl)benzenesulfonic acid]
100 to 500 nM | N#CCNC(=O)c1ccc(COc2ccc(C(F)(F)F)cc2Cl)cc1 [Compound 52-6]
500 to 1000 nM | C[C@@H](O)[C@H](NC(=O)c1cccc(COc2ccc(C(F)(F)F)cc2Cl)c1)C(=O)O [Compound 54-8]
< 100 nM | N#Cc1cc(COc2ccc(C(F)(F)F)cc2Cl)cc(C(=O)O)c1 [Compound 32-1, 3-((2-chloro-4-(trifluoromethyl)phenoxy)methyl)-5-cyanobenzoic acid]
100 to 500 nM | O=C(O)c1cccc(COc2ncc(C(F)(F)F)cc2Cl)c1 [Compound 35-1, 3-(((3-chloro-5-(trifluoromethyl)pyridin-2-yl)oxy)methyl)benzoic acid]
100 to 500 nM | O=C(O)c1cccc(CSc2ccc(Cl)cc2Cl)c1 [Compound 15-1, 3-(((2,4-dichlorophenyl)thio)methyl)benzoic acid]
100 to 500 nM | O=C(NCCCO)c1cccc(COc2ccc(C(F)(F)F)cc2Cl)c1 [Compound 52-12]
100 to 500 nM | N#Cc1cc(CCc2ccc(C(F)(F)F)cc2Cl)cc(C(=O)O)c1 [Compound 61-1, 3-(2-chloro-4-(trifluoromethyl)phenethyl)-5-cyanobenzoic acid]
> 2500 nM | NC(=O)c1cccc(COc2cccc(Cl)c2Cl)c1 [Compound 13-1, 3-((2,3-dichlorophenoxy)methyl)benzamide]
100 to 500 nM | CCNC(=O)c1cccc(COc2ccc(C(F)(F)F)cc2Cl)c1 [Compound 52-10]
1000 to 2500 nM | O=C(c1ccc(COc2ccc(C(F)(F)F)cc2Cl)cc1)N1CCC2(COC2)C1 [Compound 52-4]
100 to 500 nM | O=C(NCS(=O)(=O)O)c1ccc(COc2ccc(C(F)(F)F)cc2Cl)cc1 [Compound 52-3]
< 100 nM | CC(Oc1ccc(C(F)(F)F)cc1Cl)c1cccc(C(=O)O)c1 (centres unmarked) [Compound 62-1, 3-(1-(2-chloro-4-(trifluoromethyl)phenoxy)ethyl)benzoic acid]
1000 to 2500 nM | FC(F)(F)c1ccc(OCc2cccc(-c3cn[nH]n3)c2)c(Cl)c1 [Compound 48-1, 4-(3-((2-chloro-4-(trifluoromethyl)phenoxy)methyl)phenyl)-2H-1,2,3-triazole]
500 to 1000 nM | O=C(c1cccc(COc2ccc(C(F)(F)F)cc2Cl)c1)N1CCOC1 [Compound 52-25]
100 to 500 nM | N#Cc1cc(C#Cc2ccc(C(F)(F)F)cc2Cl)cc(C(=O)O)c1 [Compound 60-1, 3-((2-chloro-4-(trifluoromethyl)phenyl)ethynyl)-5-cyanobenzoic acid]
500 to 1000 nM | FC(F)(F)c1ccc(OCc2ccc(-c3nnn[nH]3)cc2)c(Cl)c1 [Compound 17-12]
1000 to 2500 nM | FC(F)c1cccc(COc2ccc(C(F)(F)F)cc2Cl)c1 [Compound 50-1, 2-chloro-1-((3-(difluoromethyl)benzyl)oxy)-4-(trifluoromethyl)benzene]
< 100 nM | Cc1cc(COc2ccc3ccccc3c2)nc(C(=O)O)c1 [Compound 41-1, 4-methyl-6-((naphthalen-2-yloxy)methyl)picolinic acid]
100 to 500 nM | CS(=O)(=O)NC(=O)c1cccc(COc2ccc(C(F)(F)F)cc2Cl)c1 [Compound 52-20]

More lines, now with the values behind:

Compound | IC50
CC(C)c1ccccc1OCc1cccc(C(=O)O)c1 [Compound 1-146] | > 2500 nM
O=C(O)c1cccc(COc2ccc(Cl)cc2F)c1 [Compound 1-23] | 500 to 1000 nM
Cc1cc(-n2cccc2)ccc1OCc1cccc(C(=O)O)c1F [Compound 4-27] | 100 to 500 nM
O=C(O)c1cccc(CNc2ccc(C(F)(F)F)cc2Cl)n1 [Compound 12-3] | < 100 nM
O=C(O)c1cccc(COc2ccc(Cl)c(F)c2)c1 [Compound 1-59] | < 100 nM
Cc1cc(Cl)ccc1OCc1cccc(C(=O)O)c1F [Compound 1-63] | < 100 nM
O=C(O)c1cccc(COc2ccc3sccc3c2)c1 [Compound 1-134] | 100 to 500 nM
O=C(O)c1cccc(COc2ccc(Cl)c(Cl)c2)c1 [Compound 3-6] | 100 to 500 nM
COc1ccc(OCc2cccc(C(=O)O)c2)c2ccccc12 [Compound 1-147] | 1000 to 2500 nM
COC(=O)c1cccc(COc2ccc(C#N)cc2Cl)c1 [Compound 1-3] | 1000 to 2500 nM
COc1ccc(C(=O)O)cc1COc1ccc(Cl)cc1Cl [Compound 1-27] | > 2500 nM
O=C(O)c1cccc(COc2cc(Cl)ccc2Cl)c1 [Compound 1-19] | 1000 to 2500 nM
CCOc1ccccc1OCc1cccc(C(=O)O)c1 [Compound 1-84] | 1000 to 2500 nM
Cc1cc(OCc2cccc(C(=O)O)c2)ccc1C(F)(F)F [Compound 1-138] | > 2500 nM
N#Cc1cccc(COc2ccc(Cl)cc2Cl)c1 [Compound 3-1] | 500 to 1000 nM
O=C(O)c1cc(COc2ccc(C(F)(F)F)cc2Cl)cc(C(F)(F)F)c1 [Compound 4-20] | 100 to 500 nM
O=C(O)c1cccc(COc2ccc(C(F)(F)F)c(Cl)c2)c1 [Compound 1-118] | < 100 nM
O=C(O)c1cc(Br)cc(COc2ccc(C(F)(F)F)cc2Cl)c1 [Compound 2-3] | < 100 nM
O=C(O)c1cccc(COc2cc3ccccc3cc2Cl)c1 [Compound 1-130] | 100 to 500 nM
O=C(O)c1cccc(COc2ccc3sccc3c2Cl)c1F [Compound 4-26] | < 100 nM
O=C(O)c1cccc(COc2ccc(N3CCCC3)cc2Cl)c1F [Compound 4-24] | 500 to 1000 nM

Compound | IC50
O=C(O)c1cccc(COc2ccc(Cl)cc2C(F)(F)F)c1 [Compound 1-28] | 100 to 500 nM
O=C(O)c1cccc(COc2ccc(-n3cccc3)cc2Cl)c1F [Compound 4-25] | 100 to 500 nM
O=C(O)c1cc(F)cc(COc2ccc(OC(F)(F)F)cc2Cl)c1 [Compound 1-121] | 100 to 500 nM
O=C(O)c1cccc(COc2cccc3c2CCCC3=O)c1 [Compound 1-87] | 1000 to 2500 nM
O=C(O)c1cccc(COc2ccc(Cl)cc2C(F)(F)F)n1 [Compound 1-31] | < 100 nM
Cc1cc(Cl)cc(Cl)c1OCc1cccc(C(=O)O)c1 [Compound 1-50] | 1000 to 2500 nM
O=C(O)c1cccc(CNc2ccc(Cl)cc2Cl)c1 [Compound 12-1, 3-(((2,4-dichlorophenyl)amino)methyl)benzoic acid] | 100 to 500 nM
O=C(O)c1cccc(COc2cccc(-c3ccccc3)c2)c1 [Compound 3-3] | 1000 to 2500 nM
O=C(O)c1nc(COc2ccc(C(F)(F)F)cc2Cl)ccc1F [Compound 4-18] | < 100 nM
Cc1cc(F)c(F)cc1OCc1cccc(C(=O)O)c1 [Compound 1-71] | 500 to 1000 nM
O=C(O)c1cccc(COc2ccc(C(F)(F)F)cc2)c1F [Compound 4-28] | < 100 nM
O=C(O)c1cc(F)cc(COc2ccc(Cl)cc2Cl)c1 [Compound 4-4] | < 100 nM
Cc1cc(COc2ccc(Cl)c(Cl)c2Cl)nc(C(=O)O)c1 [Compound 2-4] | < 100 nM
N#Cc1ccc(OCc2cccc(C(=O)O)c2)cc1 [Compound 1-34] | > 2500 nM
O=C(O)c1cc(COc2ccc(C(F)(F)F)cc2Cl)cc(C2CC2)c1 [Compound 11-1, 3-((2-chloro-4-(trifluoromethyl)phenoxy)methyl)-5-cyclopropylbenzoic acid] | < 100 nM
N#Cc1c(Cl)cccc1OCc1cccc(C(=O)O)c1 [Compound 1-76] | 100 to 500 nM
O=C(O)c1cccc(COc2ccc(OC(F)(F)F)cc2Cl)c1F [Compound 4-13] | < 100 nM
O=C(O)c1cccc(COc2ccc(Cl)cc2C(F)(F)F)c1F [Compound 1-62] | < 100 nM
N#Cc1ccc(OCc2cccc(C(=O)O)c2)cc1Cl [Compound 1-90] | 100 to 500 nM
COc1cccc(OCc2cccc(C(=O)O)c2)c1 [Compound 1-39] | 100 to 500 nM

Same assay, conditions: versus 10 μM Bilirubin agonist; read-out: IC50 (Bilirubin agonist)

IC50 | Compound
6 nM | N#Cc1cc(COc2ccc(C(F)(F)F)cc2Cl)cc(C(=O)O)c1 [Compound 32-1, 3-((2-chloro-4-(trifluoromethyl)phenoxy)methyl)-5-cyanobenzoic acid]
10 nM | O=C(O)c1cccc(COc2ccc(Cl)cc2C(F)(F)F)n1 [Compound 1-31]

Same assay, conditions: versus 20 μM deoxycholic acid; read-out: IC50 (Deoxycholic Acid agonist)

IC50 | Compound
10 nM | N#Cc1cc(COc2ccc(C(F)(F)F)cc2Cl)cc(C(=O)O)c1 [Compound 32-1, 3-((2-chloro-4-(trifluoromethyl)phenoxy)methyl)-5-cyanobenzoic acid]
5 nM | O=C(O)c1cccc(COc2ccc(Cl)cc2C(F)(F)F)n1 [Compound 1-31]

Same assay, conditions: versus 20 μM obeticholic acid; read-out: IC50 (Obeticholic Acid Agonist)

IC50 | Compound
3 nM | N#Cc1cc(COc2ccc(C(F)(F)F)cc2Cl)cc(C(=O)O)c1 [Compound 32-1, 3-((2-chloro-4-(trifluoromethyl)phenoxy)methyl)-5-cyanobenzoic acid]
5 nM | O=C(O)c1cccc(COc2ccc(Cl)cc2C(F)(F)F)n1 [Compound 1-31]

Same assay, conditions: versus 50 μM urobilin; read-out: IC50 (Urobilin Agonist)

IC50 | Compound
8 nM | N#Cc1cc(COc2ccc(C(F)(F)F)cc2Cl)cc(C(=O)O)c1 [Compound 32-1, 3-((2-chloro-4-(trifluoromethyl)phenoxy)methyl)-5-cyanobenzoic acid]
7 nM | O=C(O)c1cccc(COc2ccc(Cl)cc2C(F)(F)F)n1 [Compound 1-31]

Same assay, conditions: versus 100 μM conjugated bilirubin; read-out: IC50 (Conjugated Bilirubin Agonist)

IC50 | Compound
7 nM | N#Cc1cc(COc2ccc(C(F)(F)F)cc2Cl)cc(C(=O)O)c1 [Compound 32-1, 3-((2-chloro-4-(trifluoromethyl)phenoxy)methyl)-5-cyanobenzoic acid]
9 nM | O=C(O)c1cccc(COc2ccc(Cl)cc2C(F)(F)F)n1 [Compound 1-31]
